Target: voltage-gated Na channels
Type: cell-based, squid (Loligo opalescens)

Question: For “MKLTCVLVVLLLLLPYGDLITNNYIRGAARKVTPWRRNLKTRDVCDSLVGGHCIHNGCWCDQEAPHGNCCDTDGCTAAWWCPGTKWD [calTx1.1A]”, which Ki is on record?
Answer: ~15 nM

Question: What about the “Na-channel blocking activity (block)” value of the same sequence?
Answer: 55%

Question: What about the “reversibility of INa reduction/block” value of the same sequence?
Answer: reversibly blocked INa

Question: And the “steady-state voltage-dependence of fast inactivation of residual INa” value?
Answer: not significantly affected

Question: What about the “time course of residual prepulse-sensitive INa” value of the same sequence?
Answer: not significantly different than normal

Question: What about the “voltage dependence of block: potency decreasing e-fold in” value of the same sequence?
Answer: 300-400 mV

Source: US7341998B2 (The Board of Trustees of the Leland Stanford Junior …, priority 2005, dated 2008)
